Measurements from PMC9365994, “Small molecules to regulate the GH/IGF1 axis by inhibiting the growth hormone receptor synthesis” (Frontiers in Endocrinology, 2022).
“Also recorded” adds a separate entry of the source.

Assays:
[1] = target: T1, GHR (Oryctolagus cuniculus, UniProt P19941); assay: GHR and pY-GHR immunoblot in GHR-transfected Hek293 cells stimulated with GH; assay type: cell-based, rabbit; details: for GHR HEK cells (GHR at PM and in ER): 10 µM drugs overnight; for GHR pY HEK cells: GH 10-15 min before lysis, drugs overnight/20 h
T1 construct: expressed in transfected cells; host or cells: Hek293 / Hek293T cells
T1 sequence (P19941 19-638): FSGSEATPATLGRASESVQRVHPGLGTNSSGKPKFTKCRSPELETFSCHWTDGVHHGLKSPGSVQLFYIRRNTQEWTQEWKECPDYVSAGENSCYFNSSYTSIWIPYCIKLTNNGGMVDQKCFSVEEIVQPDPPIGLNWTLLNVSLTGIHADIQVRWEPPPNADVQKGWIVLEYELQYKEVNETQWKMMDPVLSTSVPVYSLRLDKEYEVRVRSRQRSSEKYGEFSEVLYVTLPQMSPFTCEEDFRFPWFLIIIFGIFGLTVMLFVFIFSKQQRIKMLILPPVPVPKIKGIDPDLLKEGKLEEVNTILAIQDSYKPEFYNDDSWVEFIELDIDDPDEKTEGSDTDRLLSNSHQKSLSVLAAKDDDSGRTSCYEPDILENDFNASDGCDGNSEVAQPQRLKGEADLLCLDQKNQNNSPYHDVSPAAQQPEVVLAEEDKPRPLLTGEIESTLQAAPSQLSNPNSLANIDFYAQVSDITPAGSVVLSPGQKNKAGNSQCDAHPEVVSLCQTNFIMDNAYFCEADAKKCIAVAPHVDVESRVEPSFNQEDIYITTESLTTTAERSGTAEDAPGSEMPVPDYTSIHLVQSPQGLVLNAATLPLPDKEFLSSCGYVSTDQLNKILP
Experimental: (§1) For GHR-Jak2 co-immunoprecipitations, the cells were lysed in 20 mM Tris pH 8.0, 150 mM NaCl, 0.5% NP40, 1 mM PMSF, […]. Cell lysates were centrifuged to pellet the nuclei and the supernatants were used for GHR isolation in 1% Triton X-100, 0.5% SDS,0.25% sodium deoxycholate, 0.5% BSA, and inhibitors via immune precipitation with anti-GHR and protein A beads. Immunoprecipitates were subjected to reducing SDS-PAGE and transferred to Immobilon-FL polyvinylidenedifluoride membrane (Millipore). Blots were immunostained with the indicated primary antibodies followed by Alexa Fluor 680, Alexa-800 IRDye conjugated anti-mouse or anti-rabbit antibodies. Detection was performed with an Odyssey system (LI-COR Biosciences).
In the primary screen we used soluble fos-zipped GHR cytosolic tails that act in signaling complexes if co-expressed with Jak2. Initially, 6 scenarios were anticipated that can lower these signals. In the discovery itinerary we used the flow cytometer assay twice to find drugs that act on the GH-induced Jak2/STAT5 pathway and not on the identical GM/CSF-driven pathway ( Figure 3 , Figure S8 ). As the GM/CSF-induced Jak2/STAT5 pathway was not affected by the 2 hit compounds (BM004 and BM012), that served as prototypes for the final analogue selection, we excluded the possibility that they act on the Jak2 signaling pathway directly (scenario 1). To test scenario 2 (inhibition of fos-GHRct expression), we treated GHR-expressing Hek293T cells with a selection of drugs from the cell proliferation studies and analyzed the GHR species. […] The ratio between the amounts of GHR in the ER and at the PM reflects a steady state of synthesis (ER) and transport to the PM followed by endocytosis and degradation in the lysosomes. […] Because both species diminished, the drugs either inhibit the synthesis of GHR molecules or induce rapid GHR degradation in the ER. To decide between these possibilities, we performed in vitro translation experiments. […] To exclude scenario 3 (inhibition of the GHR : Jak2 interaction) we replaced the proline residues in box-1 (the binding site for Jak2) with alanine residues. […] These findings render scenarios 4-6 (increased degradation of fos-pGHRct, increased degradation of Jak2, and dephosphorylation of fos-pGHRct) unlikely.
Figure 7 Effect of drugs on protein synthesis. (A): Effect of compounds on GHR. […] The amounts of GHR both at the plasma membrane (PM) and in the ER (ER) were decreased in the drug-treated cells. […] The cells were treated for GH for 10 min before lysis to be able to monitor the pY signals, after GHR isolation by immunoprecipitation (middle panels). The effect of the drugs on the pY signals reflected those of the GHR levels (only PM species were visible). In the presence of Ruxolitinib, the protein levels were unchanged, while the pY label (middle panel) was absent. […] This experiment represents the results of 6 independent repeats. (B): BM001 concentration effects on the synthesis of fos-GHRct in a HeLa cell cell-free system. […] In the right panel the 4 proline residues in box-1 were replaced by alanine residues. Empty vector (pcDNA) was used as control. The blots were detected with anti-GHR(B). The in vitro translation was performed 5 times that all show a clear inhibitory effect of BM001 on the GHR signal. (C): Effect of selected drugs on GHR levels in human lymphoblasts. IM‐9 human B lymphoblasts express endogenous GHR. […]

[2] = target: T2, GHR (Homo sapiens, UniProt P10912); assay: Endogenous GHR levels in IM-9 human B lymphoblasts (immunoprecipitation); assay type: cell-based; details: for levels of GHR: IM-9 lymphoblasts, in 4 h
T2 construct: endogenous in cells; host or cells: IM-9 human B lymphoblasts
T2 sequence (P10912 19-638): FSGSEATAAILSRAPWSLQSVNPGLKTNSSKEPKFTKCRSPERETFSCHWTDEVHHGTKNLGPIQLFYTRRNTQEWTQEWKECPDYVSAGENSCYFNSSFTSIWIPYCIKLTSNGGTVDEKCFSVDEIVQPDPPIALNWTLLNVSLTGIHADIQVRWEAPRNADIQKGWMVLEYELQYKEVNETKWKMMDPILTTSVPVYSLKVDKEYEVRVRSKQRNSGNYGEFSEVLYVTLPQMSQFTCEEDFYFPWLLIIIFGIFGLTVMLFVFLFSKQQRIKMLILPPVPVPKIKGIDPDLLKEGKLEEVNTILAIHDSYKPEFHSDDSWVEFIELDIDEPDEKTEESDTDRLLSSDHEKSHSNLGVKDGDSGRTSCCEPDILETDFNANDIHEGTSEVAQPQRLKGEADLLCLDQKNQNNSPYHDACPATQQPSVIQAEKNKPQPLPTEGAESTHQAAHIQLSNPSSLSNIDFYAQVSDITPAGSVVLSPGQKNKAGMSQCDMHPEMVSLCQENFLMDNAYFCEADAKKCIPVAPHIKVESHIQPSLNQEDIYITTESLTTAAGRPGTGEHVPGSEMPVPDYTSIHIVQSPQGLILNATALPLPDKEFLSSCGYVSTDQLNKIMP
Experimental: as §1
In the primary screen we used soluble fos-zipped GHR cytosolic tails that act in signaling complexes if co-expressed with Jak2. Initially, 6 scenarios were anticipated that can lower these signals. In the discovery itinerary we used the flow cytometer assay twice to find drugs that act on the GH-induced Jak2/STAT5 pathway and not on the identical GM/CSF-driven pathway ( Figure 3 , Figure S8 ). As the GM/CSF-induced Jak2/STAT5 pathway was not affected by the 2 hit compounds (BM004 and BM012), that served as prototypes for the final analogue selection, we excluded the possibility that they act on the Jak2 signaling pathway directly (scenario 1). To test scenario 2 (inhibition of fos-GHRct expression), we treated GHR-expressing Hek293T cells with a selection of drugs from the cell proliferation studies and analyzed the GHR species. […] The ratio between the amounts of GHR in the ER and at the PM reflects a steady state of synthesis (ER) and transport to the PM followed by endocytosis and degradation in the lysosomes. […] Because both species diminished, the drugs either inhibit the synthesis of GHR molecules or induce rapid GHR degradation in the ER. To decide between these possibilities, we performed in vitro translation experiments. […]
Figure 7 Effect of drugs on protein synthesis. […] The blots were detected with anti-GHR(B). […]

[3] = system: GM-CSF-Jak2-Stat5 signaling in blood monocytes; assay: Flow cytometric (FACS) pSTAT5 test, GM-CSF-induced, blood monocytes; details: Fig. S8B; Conc of drugs: 1 mM; incubation time 30 min
Experimental: First round: The PerFix EXPOSE (Beckman Coulter), was used to fix and permeabilize cells according to the optimized procedure described in Malergue et al., 2015 ([36]). Samples were analyzed in FC500 MPL. Data were analyzed with Kaluza software (Beckman Coulter). Second round: the PerFix EXPOSE was used according to the IFU and samples were analyzed in a Navios Cytometer. The first screening used pure IM-9 cells, whereas in the second round they were spiked in 100 µL whole blood (EDTA tubes). 15 min after the inhibitory compounds, the activators were added for 20-30 min.
In short: A mixture of blood and
IM9 human lymphoblast was incubated with the drugs (50 µM) for 15 MIN; GH and GM-CSF
were added 7 min before the cells were fixed with formaldehyde. Blood cells are sensitive to
GM-CSF, and not to GH; IM9 cells are sensitive to GH. A mixture of three antibodies in three
colors; CD14-FITC, CD34-PE and p-Stat5-Alexa 647 was used to analyze the p-Stat5 levels
of monocytes and IM9 cells.
Fig. S8A. FACS plots of compounds that inhibit GH-induced GHR-Jak2-Stat5 signaling in IM9 lymphoblasts.
The end point of the signaling cascade is measured by assessing the phosphorylation status of STAT5.
Stat5. Conc of drugs: 1 mM; incubation time 30 min
Fig. S8B. FACS plots of compounds that inhibit GM-CSF-Jak2-Stat5 signaling in blood monocytes. The end
point of the signaling cascade is measured by assessing the phosphorylation status of STAT5.

| Structure (SMILES) | GHR HEK cells (GHR at PM and in ER) [1] | levels of GHR [2] | GHR pY HEK cells [1] | GM-CSF-induced Stat5 phosphorylation (in words) [3] | other results |
| --- | --- | --- | --- | --- | --- |
| Cc1nc(N)nc(N)c1/C=C/C1(c2ccc(C(F)(F)F)cc2)CC1 [BM001] | strongest effect | – | – | – | GHR in IM-9 cells ([2]; drugs 4 hrs): depleted |
| Cc1c(-c2cccc(C#N)c2)ccc2nc(N)nc(N)c12 [BM002] | – | ~ 60% | – | – | – |
| COc1cc(CN(C)c2ccc3nc(N)nc(N)c3c2)cc(OC)c1OC [BM003] | – | ~ 60% | – | – | – |
| Cc1nc(N)nc(N)c1C#CC1(c2ccc(Cl)cc2)CC1 [BM004] | – | – | reduced | no effect; also recorded: inactive; also recorded: not affected | – |
| CCOc1cccc2nc(N)nc(N)c12 [BM012] | – | – | reduced | no effect; also recorded: inactive; also recorded: not affected | – |
| N#CC[C@H](C1CCCC1)n1cc(-c2ncnc3[nH]ccc23)cn1 [Ruxolitinib, reference compound] | unchanged | – | absent | – | – |
